Legend:
[1] = biological target: T1, human TLR8 (Homo sapiens, UniProt Q9NR97); experiment: TLR8 inhibition reporter assay (HEK-Blue SEAP); format: cell-based; settings: HEK-Blue cells overexpressing human TLR8, R848 15.9 μM, 22 hour incubation
T1 construct: host or cells: HEK-Blue cells
T1 sequence (Q9NR97 27-1041): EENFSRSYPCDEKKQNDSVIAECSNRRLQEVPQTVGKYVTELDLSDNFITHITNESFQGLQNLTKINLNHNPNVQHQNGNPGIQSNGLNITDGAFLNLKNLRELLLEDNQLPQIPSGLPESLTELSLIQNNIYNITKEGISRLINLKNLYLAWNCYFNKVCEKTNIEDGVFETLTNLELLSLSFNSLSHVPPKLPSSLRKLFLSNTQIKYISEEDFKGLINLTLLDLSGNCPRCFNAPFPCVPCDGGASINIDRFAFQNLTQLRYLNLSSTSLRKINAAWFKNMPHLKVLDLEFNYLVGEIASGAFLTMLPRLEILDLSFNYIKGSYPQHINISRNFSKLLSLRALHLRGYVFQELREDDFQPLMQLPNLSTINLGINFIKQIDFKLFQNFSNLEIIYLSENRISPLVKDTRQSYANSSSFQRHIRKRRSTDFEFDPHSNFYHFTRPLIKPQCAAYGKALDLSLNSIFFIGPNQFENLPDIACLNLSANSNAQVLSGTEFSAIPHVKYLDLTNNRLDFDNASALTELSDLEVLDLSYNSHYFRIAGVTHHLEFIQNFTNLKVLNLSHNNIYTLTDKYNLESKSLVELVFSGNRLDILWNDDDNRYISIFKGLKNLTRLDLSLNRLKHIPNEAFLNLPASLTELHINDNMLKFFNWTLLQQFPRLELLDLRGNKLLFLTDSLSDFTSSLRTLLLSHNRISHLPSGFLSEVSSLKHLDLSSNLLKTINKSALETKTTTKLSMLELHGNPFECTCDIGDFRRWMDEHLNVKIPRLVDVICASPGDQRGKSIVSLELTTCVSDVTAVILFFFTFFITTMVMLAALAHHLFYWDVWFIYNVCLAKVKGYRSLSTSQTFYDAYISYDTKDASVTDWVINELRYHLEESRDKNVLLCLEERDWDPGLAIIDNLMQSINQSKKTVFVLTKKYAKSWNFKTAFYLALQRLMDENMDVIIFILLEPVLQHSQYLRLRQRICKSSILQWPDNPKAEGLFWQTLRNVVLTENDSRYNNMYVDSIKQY
In short: (§1)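 Screening used HEK-Blue cells overexpressing one human TLR (7, 8 or 9) and an IFN-β minimal promoter–NF-κB/AP-1 SEAP construct. Stimulation lasted 22 h at 37 °C with receptor-specific agonist: gardiquimod, R848 or ODN2006 at 7.5 μM, 15.9 μM and 5 nM.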

[2] = biological target: T2, human TLR9 (Homo sapiens, UniProt Q9NR96); experiment: TLR9 inhibition reporter assay (HEK-Blue SEAP); format: cell-based; settings: HEK-Blue cells overexpressing human TLR9, ODN2006 5 nM, 22 hour incubation
T2 construct: host or cells: HEK-Blue cells
T2 sequence (Q9NR96 26-1032): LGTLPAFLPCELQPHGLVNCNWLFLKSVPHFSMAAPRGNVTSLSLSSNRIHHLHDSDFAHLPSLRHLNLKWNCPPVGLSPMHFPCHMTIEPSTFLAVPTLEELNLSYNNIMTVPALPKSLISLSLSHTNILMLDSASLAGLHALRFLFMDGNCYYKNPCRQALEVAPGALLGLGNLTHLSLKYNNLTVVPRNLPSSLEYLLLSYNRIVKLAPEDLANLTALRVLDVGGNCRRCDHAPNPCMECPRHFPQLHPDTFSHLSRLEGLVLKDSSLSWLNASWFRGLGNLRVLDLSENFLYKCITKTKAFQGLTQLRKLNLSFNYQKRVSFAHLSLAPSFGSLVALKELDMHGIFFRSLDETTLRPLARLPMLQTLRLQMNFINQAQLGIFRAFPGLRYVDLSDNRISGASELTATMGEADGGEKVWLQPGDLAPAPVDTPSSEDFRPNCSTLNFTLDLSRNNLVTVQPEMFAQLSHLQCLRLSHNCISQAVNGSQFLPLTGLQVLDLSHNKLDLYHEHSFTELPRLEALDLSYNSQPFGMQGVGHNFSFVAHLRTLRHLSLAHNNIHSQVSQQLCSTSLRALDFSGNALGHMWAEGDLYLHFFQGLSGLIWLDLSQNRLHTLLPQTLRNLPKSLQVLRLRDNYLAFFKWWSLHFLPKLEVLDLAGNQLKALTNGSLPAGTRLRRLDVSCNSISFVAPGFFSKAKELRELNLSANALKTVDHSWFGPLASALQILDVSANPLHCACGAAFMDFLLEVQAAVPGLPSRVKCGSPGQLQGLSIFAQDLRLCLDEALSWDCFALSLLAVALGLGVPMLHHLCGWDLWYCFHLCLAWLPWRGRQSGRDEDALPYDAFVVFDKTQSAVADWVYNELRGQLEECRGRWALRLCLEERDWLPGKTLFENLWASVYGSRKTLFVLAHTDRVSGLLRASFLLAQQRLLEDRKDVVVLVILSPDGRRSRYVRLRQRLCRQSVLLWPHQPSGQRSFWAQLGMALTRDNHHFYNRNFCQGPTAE
In short: as §1

IC50 [1] [nM] | IC50 [2] [nM] | Structure (SMILES)
1.66 | 10900 | COc1cc(-c2cc3[nH]c(=O)n(C4CCC(N5CC[C@H](F)C5)CC4)c3cc2C(C)C)cn2ncnc12 (stereo partly drawn) [Example 287, (S)-1-(4-(3-fluoropyrrolidin-1-yl)cyclohexyl)-6-isopropyl-5-(8-methoxy-[1,2,4]triazolo[1,5-a]pyridin-6-yl)-1,3-dihydro-2H-benzo[d]imidazol-2-one]
1030 | 347 | Cc1cc(-c2ccc3c(c2)[nH]c(=O)n3C2CCNCC2)cn2ncnc12 [1 EB, 5-(8-methyl-[1,2,4]triazolo[1,5-a]pyridin-6-yl)-1-(piperidin-4-yl)-1,3-dihydro-2H-benzo[d]imidazol-2-one]
439 | 5450 | Cc1cc2c(cc1-c1cc(C)c3ncnn3c1)[nH]c(=O)n2C1CCNCC1 [1 EA, 6-methyl-5-(8-methyl-[1,2,4]triazolo[1,5-a]pyridin-6-yl)-1-(piperidin-4-yl)-1,3-dihydro-2H-benzo[d]imidazol-2-one]
38.1 | 524 | Cc1cc2c(cc1-c1cc(C)c3ncnn3c1)[nH]c(=O)n2[C@@H]1CCCNC1 [1 ED, (R)-6-methyl-5-(8-methyl-[1,2,4]triazolo[1,5-a]pyridin-6-yl)-1-(piperidin-3-yl)-1,3-dihydro-2H-benzo[d]imidazol-2-one]
0.17 | 9770 | COc1cc(-c2cc3[nH]c(=O)n(C4CCC(N(C)CCC(F)(F)F)CC4)c3cc2C(C)C)cn2ncnc12 (single isomer, unassigned) [Example 248, 6-isopropyl-5-(8-methoxy-[1,2,4]triazolo[1,5-a]pyridin-6-yl)-1-(4-(methyl(3,3,3-trifluoropropyl)amino)cyclohexyl)-1,3-dihydro-2H-benzo[d]imidazol-2-one]
0.81 | 19900 | Cc1c(-c2cc3[nH]c(=O)n(C4CCC(N5CCC(F)(F)CC5)CC4)c3cc2C(C)C)cn2ncnc2c1C (single isomer, unassigned) [Example 275, 1-(4-(4,4-difluoropiperidin-1-yl)cyclohexyl)-5-(7,8-dimethyl-[1,2,4]triazolo[1,5-a]pyridin-6-yl)-6-isopropyl-1,3-dihydro-2H-benzo[d]imidazol-2-one]
4.08 | 4630 | Cc1cc2c(cc1-c1cc(C)c3ncnn3c1)[nH]c(=O)n2[C@H]1CC[C@@H](NC(C)C)CC1 [Example 22, 1-((1s,4s)-4-(isopropylamino)cyclohexyl)-6-methyl-5-(8-methyl-[1,2,4]triazolo[1,5-a]pyridin-6-yl)-1,3-dihydro-2H-benzo[d]imidazol-2-one]
22.5 | 381 | Cc1cc2c(cc1-c1cc(C)c3ncnn3c1)[nH]c(=O)n2C1CCCNC1 (centres unmarked) [1 EC, 6-methyl-5-(8-methyl-[1,2,4]triazolo[1,5-a]pyridin-6-yl)-1-(piperidin-3-yl)-1,3-dihydro-2H-benzo[d]imidazol-2-one]
1.08 | 17400 | COc1c(C)c(-c2cc3[nH]c(=O)n(C4CCC(N5CCC6(CC5)COC6)CC4)c3cc2C(C)C)cn2ncnc12 (single isomer, unassigned) [Example 268, 1-(4-(2-oxa-7-azaspiro[3.5]nonan-7-yl)cyclohexyl)-6-isopropyl-5-(8-methoxy-7-methyl-[1,2,4]triazolo[1,5-a]pyridin-6-yl)-1,3-dihydro-2H-benzo[d]imidazol-2-one]
1.09 | 16800 | Cc1c(-c2cc3[nH]c(=O)n(C4CCC(N5CCCC(F)C5)CC4)c3cc2C(C)C)cn2ncnc2c1C (centres unmarked) [Example 274, 5-(7,8-dimethyl-[1,2,4]triazolo[1,5-a]pyridin-6-yl)-1-(4-(3-fluoropiperidin-1-yl)cyclohexyl)-6-isopropyl-1,3-dihydro-2H-benzo[d]imidazol-2-one]
0.68 | 15500 | COc1c(C)c(-c2cc3[nH]c(=O)n(C4CCC(N5CCCOCC5)CC4)c3cc2C(C)C)cn2ncnc12 (single isomer, unassigned) [Example 262, 1-(4-(1,4-oxazepan-4-yl)cyclohexyl)-6-isopropyl-5-(8-methoxy-7-methyl-[1,2,4]triazolo[1,5-a]pyridin-6-yl)-1,3-dihydro-2H-benzo[d]imidazol-2-one]
> 3130 | 1180 | COc1cc(-c2ccc3c(c2)[nH]c(=O)n3C2CCNCC2)cn2ncnc12 [1 EI, 5-(8-methoxy-[1,2,4]triazolo[1,5-a]pyridin-6-yl)-1-(piperidin-4-yl)-1,3-dihydro-2H-benzo[d]imidazol-2-one]
0.13 | 28900 | COc1cc(-c2cc3[nH]c(=O)n(C4CCC(N5C[C@@H](F)[C@@H](F)C5)CC4)c3cc2C(C)C)cn2ncnc12 (single isomer, unassigned) [Example 292]
3.38 | 14100 | COc1cc(-c2cc3[nH]c(=O)n(C4CCC(N5CC6(COC6)C5)CC4)c3cc2C(C)C)cn2ncnc12 (centres unmarked) [Example 254, 1-(4-(2-oxa-6-azaspiro[3.3]heptan-6-yl)cyclohexyl)-6-isopropyl-5-(8-methoxy-[1,2,4]triazolo[1,5-a]pyridin-6-yl)-1,3-dihydro-2H-benzo[d]imidazol-2-one]
6.74 | 1580 | CCN[C@H]1CC[C@H](n2c(=O)[nH]c3cc(-c4cc(C)c5ncnn5c4)c(C)cc32)CC1 [Example 24, 1-((1r,4s)-4-(ethylamino)cyclohexyl)-6-methyl-5-(8-methyl-[1,2,4]triazolo[1,5-a]pyridin-6-yl)-1,3-dihydro-2H-benzo[d]imidazol-2-one]
2.83 | 11600 | COc1c(C)c(-c2cc3[nH]c(=O)n(C4CCC(N5CC6(COC6)C5)CC4)c3cc2C(C)C)cn2ncnc12 (single isomer, unassigned) [Example 270, 1-(4-(2-oxa-6-azaspiro[3.3]heptan-6-yl)cyclohexyl)-6-isopropyl-5-(8-methoxy-7-methyl-[1,2,4]triazolo[1,5-a]pyridin-6-yl)-1,3-dihydro-2H-benzo[d]imidazol-2-one]
13.3 | 7060 | CCN[C@H]1CC[C@@H](n2c(=O)[nH]c3cc(-c4cc(C)c5ncnn5c4)c(C)cc32)CC1 [Example 21, 1-((1s,4s)-4-(ethylamino)cyclohexyl)-6-methyl-5-(8-methyl-[1,2,4]triazolo[1,5-a]pyridin-6-yl)-1,3-dihydro-2H-benzo[d]imidazol-2-one]
1.86 | 12300 | COC[C@@H]1CCN(C2CCC(n3c(=O)[nH]c4cc(-c5cc(OC)c6ncnn6c5)c(C(C)C)cc43)CC2)C1 (single isomer, unassigned) [Example 291]
0.38 | 6360 | COc1c(C)c(-c2cc3[nH]c(=O)n(C4CCC(NCC5(S(C)(=O)=O)CC5)CC4)c3cc2C(C)C)cn2ncnc12 (single isomer, unassigned) [Example 260]
